Experimental data published in ChEMBL document CHEMBL3774366, “Synthesis, and docking studies of phenylpyrimidine-carboxamide derivatives bearing 1H-pyrrolo[2,3-b]pyridine moiety as c-Met inhibitors” (Bioorg Med Chem, 2016).
pIC50: −log10 of the molar value.

Columns and labels:
MCF7 [1] = test system: MCF7
Description: (§1) Cytotoxicity against human MCF7 cells after 72 hrs by MTT assay

A549 = assay: Cytotoxicity against human A549 cells after 72 hrs by MTT assay; conditions: for pIC50: Homo sapiens, A549, 72 h
MCF7 [2] = assay: cells; conditions: Homo sapiens, MCF7, 72 h
Description: as §1

cells = conditions: Homo sapiens, PC-3, 72 h
Description: Cytotoxicity against human PC3 cells after 72 hrs by MTT assay

[3] = target: Hepatocyte growth factor receptor (Homo sapiens, UniProt P08581); assay: Inhibition of c-Met (unknown origin) using FAM-labeled peptide substrate after 10 mins by mobility shift assay
HepG2 = assay: Cytotoxicity against human HepG2 cells after 72 hrs by MTT assay; assay type: functional, cell-based; conditions: HepG2, 72 h
HeLa = assay: Cytotoxicity against human HeLa cells after 72 hrs by MTT assay; assay type: functional, cell-based

Sequence of Hepatocyte growth factor receptor (P08581 whole entry): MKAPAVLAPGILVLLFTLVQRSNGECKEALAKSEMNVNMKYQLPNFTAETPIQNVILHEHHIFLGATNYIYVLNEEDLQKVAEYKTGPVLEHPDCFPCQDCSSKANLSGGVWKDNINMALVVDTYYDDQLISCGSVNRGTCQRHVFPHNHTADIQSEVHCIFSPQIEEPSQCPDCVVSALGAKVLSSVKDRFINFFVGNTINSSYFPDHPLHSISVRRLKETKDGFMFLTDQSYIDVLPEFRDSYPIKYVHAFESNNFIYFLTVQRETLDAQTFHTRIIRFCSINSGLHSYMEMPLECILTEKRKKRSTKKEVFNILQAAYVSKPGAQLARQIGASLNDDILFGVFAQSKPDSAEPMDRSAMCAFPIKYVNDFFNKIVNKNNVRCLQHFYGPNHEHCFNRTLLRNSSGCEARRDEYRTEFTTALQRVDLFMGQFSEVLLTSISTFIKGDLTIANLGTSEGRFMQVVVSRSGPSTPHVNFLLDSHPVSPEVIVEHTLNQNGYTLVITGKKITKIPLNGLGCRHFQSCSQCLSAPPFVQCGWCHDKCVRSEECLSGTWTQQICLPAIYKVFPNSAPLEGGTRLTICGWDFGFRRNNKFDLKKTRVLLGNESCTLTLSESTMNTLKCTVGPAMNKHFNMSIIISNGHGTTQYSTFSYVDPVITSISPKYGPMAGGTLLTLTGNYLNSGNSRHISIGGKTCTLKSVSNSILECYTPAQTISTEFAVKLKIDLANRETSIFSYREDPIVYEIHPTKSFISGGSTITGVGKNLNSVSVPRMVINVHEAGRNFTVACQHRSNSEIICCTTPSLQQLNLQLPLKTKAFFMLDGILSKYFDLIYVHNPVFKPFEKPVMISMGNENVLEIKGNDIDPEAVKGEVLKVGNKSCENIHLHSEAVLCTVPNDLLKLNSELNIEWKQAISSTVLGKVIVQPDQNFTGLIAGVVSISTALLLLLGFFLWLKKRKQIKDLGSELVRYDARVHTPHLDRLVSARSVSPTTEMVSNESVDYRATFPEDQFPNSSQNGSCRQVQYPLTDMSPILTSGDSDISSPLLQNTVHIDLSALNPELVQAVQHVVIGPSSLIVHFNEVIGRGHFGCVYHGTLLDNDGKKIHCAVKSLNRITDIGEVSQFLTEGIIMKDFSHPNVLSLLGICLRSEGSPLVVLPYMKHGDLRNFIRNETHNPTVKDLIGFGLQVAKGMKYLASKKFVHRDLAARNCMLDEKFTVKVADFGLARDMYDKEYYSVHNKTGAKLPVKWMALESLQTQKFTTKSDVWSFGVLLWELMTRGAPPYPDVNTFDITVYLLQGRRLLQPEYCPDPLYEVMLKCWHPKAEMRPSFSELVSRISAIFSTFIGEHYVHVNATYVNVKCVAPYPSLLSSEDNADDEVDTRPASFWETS

Compound	IC50 (MCF7 [1])	pIC50 (A549)	pIC50 (MCF7 [2])	pIC50 (cells)	pIC50 [3]	pIC50 (HepG2)	pIC50 (HeLa)	IC50 (A549; a549)
O=C(Nc1ccc(Oc2ccnc3[nH]ccc23)c(F)c1)c1cc(-c2ccc(F)cc2)ncn1	Not Active	4.85	–	–	–	–	–	–
O=C(Nc1ccc(Oc2ccnc3[nH]ccc23)cc1)c1cc(-c2ccc(F)cc2)ncn1	–	4.89	4.80	–	–	–	–	–
COc1ccc(-c2ccnc(C(=O)Nc3ccc(Oc4ccnc5[nH]ccc45)cc3)n2)cc1	–	4.87	4.91	4.76	–	–	–	–
O=C(Nc1ccc(Oc2ccnc3[nH]ccc23)cc1)c1nccc(-c2cccc(Cl)c2)n1	–	5.39	4.99	5.11	–	–	–	–
COc1ccc(-c2cc(C(=O)Nc3ccc(Oc4ccnc5[nH]ccc45)cc3)ncn2)cc1	–	5.36	5.35	5.01	–	–	–	–
O=C(Nc1ccc(Oc2ccnc3[nH]ccc23)cc1)c1cc(-c2ccccc2)ncn1	–	6.85	7.70	6.62	6.92	5.51	6.40	–
O=C(Nc1ccc(Oc2ccnc3[nH]ccc23)c(F)c1)c1nccc(-c2ccc([N+](=O)[O-])cc2)n1	Not Active	5.35	–	4.92	–	–	–	–
O=C(Nc1ccc(Oc2ccnc3[nH]ccc23)c(F)c1)c1cc(-c2ccc(Cl)cc2)ncn1	–	5.47	4.57	5.49	–	–	–	–
O=C(Nc1ccc(Oc2ccnc3[nH]ccc23)c(F)c1)c1cc(-c2ccc(Br)cc2)ncn1	–	5.16	4.99	4.95	–	–	–	–
Cc1ccc(-c2ccnc(C(=O)Nc3ccc(Oc4ccnc5[nH]ccc45)c(F)c3)n2)cc1	–	5.94	5.14	6.28	5.47	4.78	5.26	–
COc1ccc(-c2cc(C(=O)Nc3ccc(Oc4ccnc5[nH]ccc45)c(F)c3)ncn2)cc1	–	5.38	4.98	5.59	–	–	–	–
Cc1ccc(-c2cc(C(=O)Nc3ccc(Oc4ccnc5[nH]ccc45)cc3)ncn2)cc1	–	5.27	5.79	5.01	–	–	–	–
Cc1ccc(-c2cc(C(=O)Nc3ccc(Oc4ccnc5[nH]ccc45)c(F)c3)ncn2)cc1	–	5.07	5.17	4.60	–	–	–	–
O=C(Nc1ccc(Oc2ccnc3[nH]ccc23)cc1)c1cc(-c2ccc(Br)cc2)ncn1	–	5.01	5.42	5.58	–	–	–	–
Cc1ccc(-c2ccnc(C(=O)Nc3ccc(Oc4ccnc5[nH]ccc45)cc3)n2)cc1	–	5.62	5.19	5.21	–	–	–	–
O=C(Nc1ccc(Oc2ccnc3[nH]ccc23)c(F)c1)c1nccc(-c2ccc(Cl)cc2)n1	–	5.05	5.02	4.84	–	–	–	–
O=C(Nc1ccc(Oc2ccnc3[nH]ccc23)cc1)c1cc(-c2ccc(C(F)(F)F)cc2)ncn1	–	5.03	5.20	5.67	–	–	–	–
COc1ccc(-c2ccnc(C(=O)Nc3ccc(Oc4ccnc5[nH]ccc45)c(F)c3)n2)cc1	–	5.27	5.05	4.85	–	–	–	–
O=C(Nc1ccc(Oc2ccnc3[nH]ccc23)c(F)c1)c1nccc(-c2cccc(Cl)c2)n1	–	6.35	5.80	5.86	5.66	5.03	5.47	–
O=C(Nc1ccc(Oc2ccnc3[nH]ccc23)cc1)c1cc(-c2ccc(Cl)cc2)ncn1	–	5.19	5.11	4.81	–	–	–	–
O=C(Nc1ccc(Oc2ccnc3[nH]ccc23)c(F)c1)c1cc(-c2ccccc2)ncn1	–	6.74	5.33	7.40	6.01	5.02	5.54	–
O=C(Nc1ccc(Oc2ccnc3[nH]ccc23)cc1)c1nccc(-c2ccc(Cl)cc2)n1	Not Active	4.65	–	–	–	–	–	–
O=C(Nc1ccc(Oc2ccnc3[nH]ccc23)c(F)c1)c1cc(-c2ccc(C(F)(F)F)cc2)ncn1	–	5.65	5.55	5.39	–	–	–	–
O=C(Nc1ccc(Oc2ccnc3[nH]ccc23)cc1)c1nccc(-c2ccc(F)cc2)n1	Not Active	–	–	–	–	–	–	Not Active
